Measured values reported in US20250368638A1, “BICYCLIC INHIBITORS OF NICOTINAMIDE […], COMPOSITIONS AND USES THEREOF” (President and Fellows of Harvard College, priority 2021, published 2025).

Key:
hERG = hERG (Homo sapiens, UniProt Q12809); assay: hERG safety evaluation by manual Patch-Clamp system; assay type: cell-based
Method: Cell lines and cell culture: hERG stably expressed HEK 293 cell line (Cat #K1236) was purchased from Invitrogen. The cells are cultured in 85% DMEM, 10% dialyzed FBS, 0.1 mM NEAA, 25 mM HEPES, 100 U/mL Penicillin-Streptomycin, 5 μg/mL Blasticidin and 400 μg/mL Geneticin. Cells are split using TrypLE™ Express about three times a week, and maintained between ˜40% to ˜80% confluence. Before the assay, the cells were onto the coverslips at 5×10^5 cells/per 6 cm cell culture dish and induced with doxycycline at 1 μg/mL for 48 hours.
[…]; 2) Intracellular solution (in mM): 140 KCl, 2 MgCl2, 10 EGTA, 10 HEPES and 5 MgATP (pH adjusted to 7.35 with KOH).
Experimental procedure: 1) Remove the coverslip from the cell culture dish and place it on the microscope stage in bath chamber; 2) Locate a desirable cell using the ×10 objective. Locate the tip of the electrode under the microscope using the ×10 objective by focusing above the plane of the cells. […]
Data analysis: Data that met the above criteria for hERG current quality were further analyzed as the following steps: 1) Percent hERG current inhibition was calculated using the following equation; 2) The dose response curve of test compounds was plotted with percentage of hERG current inhibition against the concentration of test compounds using Graphpad Prism 8.0, and fit to a sigmoid dose-response curve with a variable slope.

[1] = Metabolic stability in pooled human liver microsomes
Method: A master solution was prepared according to the following table.
40 μL of 10 mM NADPH solution was added to each well. The final concentrations of NADPH was 1 mM. The mixture was pre-warmed at 37° C. for 5 minutes. The negative control samples were prepared by replacing NADPH solutions with 40 μL of ultra-pure H2O. The negative control was used to exclude the misleading factor that resulted from instability of chemical itself. Samples with NADPH were prepared in duplicate. Negative controls were prepared in singlet.
The reaction was started with the addition of 4 μL of 200 μM control compound or test compound solutions. […] Samples were centrifuged at 3, 220 g for 40 minutes. Aliquot of 90 μL of the supernatant was mixed with 90 μL of ultra-pure H2O and then used for LC-MS/MS analysis.
For metabolite standard samples: 1 μL of 400 μM working solution was added to 89 μL master solution following by adding 400 μL of cold acetonitrile with internal standard (IS) (100 nM alprazolam, 200 nM Imipramine, 200 nM labetalol and 2 μM ketoprofen). Then 10 μL of 10 mM NADPH solution or ultra-pure H2O was added to the mixture. Samples were centrifuged at 3,220 g for 40 minutes to precipitate protein. Aliquots of 90 μL supernatant diluted by 90 μL of water was used for LC-MS/MS analysis.

Sequence of hERG (Q12809 whole entry): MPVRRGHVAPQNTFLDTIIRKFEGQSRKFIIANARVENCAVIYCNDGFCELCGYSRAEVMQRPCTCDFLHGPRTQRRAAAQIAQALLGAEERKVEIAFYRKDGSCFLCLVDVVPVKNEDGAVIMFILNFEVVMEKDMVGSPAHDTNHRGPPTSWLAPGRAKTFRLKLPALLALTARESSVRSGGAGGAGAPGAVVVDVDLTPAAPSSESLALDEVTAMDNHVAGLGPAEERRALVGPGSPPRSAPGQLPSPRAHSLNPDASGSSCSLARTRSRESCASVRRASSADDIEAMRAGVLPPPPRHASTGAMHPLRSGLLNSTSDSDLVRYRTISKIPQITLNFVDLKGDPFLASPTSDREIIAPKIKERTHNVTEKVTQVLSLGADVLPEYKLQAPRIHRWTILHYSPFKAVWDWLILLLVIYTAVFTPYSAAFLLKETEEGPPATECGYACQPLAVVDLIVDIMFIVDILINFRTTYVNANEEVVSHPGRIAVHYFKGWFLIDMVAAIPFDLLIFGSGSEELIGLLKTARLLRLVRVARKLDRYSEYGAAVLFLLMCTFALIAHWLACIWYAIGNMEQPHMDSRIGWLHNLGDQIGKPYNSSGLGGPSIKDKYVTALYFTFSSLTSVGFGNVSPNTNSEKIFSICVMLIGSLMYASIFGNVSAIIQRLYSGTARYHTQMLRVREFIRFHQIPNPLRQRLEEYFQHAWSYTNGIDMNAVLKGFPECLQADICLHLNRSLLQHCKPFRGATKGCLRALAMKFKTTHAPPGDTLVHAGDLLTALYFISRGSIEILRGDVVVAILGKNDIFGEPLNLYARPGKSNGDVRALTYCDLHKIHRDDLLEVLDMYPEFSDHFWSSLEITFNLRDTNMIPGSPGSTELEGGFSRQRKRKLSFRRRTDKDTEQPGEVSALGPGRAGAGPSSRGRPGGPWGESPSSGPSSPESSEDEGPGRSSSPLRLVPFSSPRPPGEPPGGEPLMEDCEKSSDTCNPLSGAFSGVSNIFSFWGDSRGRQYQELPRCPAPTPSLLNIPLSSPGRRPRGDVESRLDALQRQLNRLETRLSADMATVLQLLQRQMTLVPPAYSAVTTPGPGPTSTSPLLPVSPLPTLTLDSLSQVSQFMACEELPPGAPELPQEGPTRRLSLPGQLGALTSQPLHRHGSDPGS

Q: Which results are given for `C[C@@H]1Cc2cc(C(N)=O)cnc2N1` [Compound 11, (2R)-2-methyl-2,3-dihydro-1H-pyrrolo[2,3-b]pyridine-5-carboxamide]?
A: inhibition at 5 min, 30 µM (hERG; human, HEK293 cells stably expressing hERG, pH 7.35, at 30 μM): 15%; IC50 (hERG; manual Patch-Clamp, hERG stably expressed HEK 293 cell line): > 30 µM; Remaining (%) at 60 minutes ([1]; Human liver microsomes): 97.33%; CLint scaled at 2 μM ([1]; human, microsomes): < 6.79 mL/min/kg; half-life at 2 μM ([1]; human, microsomes): > 4.26 h; microsomal CLint at 2 μM ([1]; human, microsomes): < 5.42 µL/min/mg
